Reference: patent US10100051B2, “Compound of 5-hydroxyl-1,7-naphthyridine substituted by aryloxy or heteroaryloxy, preparation method thereof and pharmaceutical use thereof” (SHENYANG SUNSHINE PHARMACEUTICAL CO. LTD., priority 2015, dated 2018)
Values joined by “and” are separate entries in the source; they are usually repeats but may differ in a detail not shown here. Equal entries are not always repeated.

Test system: male Balb/c mice
Test: Effect on increasing erythrocyte of normal mice (reticulocyte count)
Type: in vivo
Design: unit not given here
Protocol: Biological Example 3: Effect of the Compounds of the Present Invention on Increasing Erythrocyte of Normal Mice
80 male Balb/c mice were divided into 11 groups, with 8 animals for each drug group, 10 animals for blank control group. Drug group: AKB-6548, 100 mg/kg, oral administration, once a day×3; FG-4592, 25 mg/kg, oral administration, once a day×3; EPO, 100 IU/kg, Day 1 and Day 3, subcutaneous injection, as positive control groups. Each of the compounds of the present invention was orally administrated at 25 mg/kg, once a day×3. Four hours after the last administration, orbital blood of all animals were collected and treated with EDTA-K2 anticoagulant, and reticulocytes (RETIC) were counted with a blood cell automated analyzer.

[1] = 25 mg/kg oral, once a day × 3, four hours after the last administration
[2] = 100 IU/kg subcutaneous injection, Day 1 and Day 3, four hours after the last administration
[3] = 100 mg/kg oral, once a day × 3, four hours after the last administration

Compound: COc1ccc(Oc2ccc3c(O)c(C(=O)NCC(=O)O)nc(C)c3n2)cc1 [Compound 14, 2-(5-hydroxy-2-(4-methoxyphenoxy)-8-methyl-1,7-naphthyridine-6-formamido) acetic acid]
- RETIC, Average [1]: 5.73
- RETIC, individual mice [1]: 6.1 and 6.6 and 5.8 (2×) and 6.5 and 5.7 and 4.4 and 4.9

Compound: Cc1nc(C(=O)NCC(=O)O)c(O)c2ccc(Oc3ccccc3)cc12 [FG-4592-A, reference compound]
- RETIC, Average [1]: 3.73
- RETIC, individual mice [1]: 3.8 (2×) and 4 (2×) and 3.5 and 4.4 and 3.4 and 3.6

Compound: Cc1nc(C(=O)NCC(=O)O)c(O)c2ccc(Oc3ccc4c(c3)OCCO4)nc12 [Compound 12, 2-(2-((2,3-dihydrobenzo[b][1,4]dioxo-6-yl)oxy)-5-hydroxy-8-methyl-1,7-naphthyridine-6-formamido) acetic acid]
- RETIC, Average [1]: 5.24
- RETIC, individual mice [1]: 5.4 and 5 (3×) and 6 and 5.6 (2×) and 4.3

Compound: EPO: erythropoietin, glycoprotein hormone; exogenous positive control given subcutaneously
- RETIC, Average [2]: 3.73
- RETIC, individual mice [2]: 5.9 and 2.5 and 2.2 (2×) and 2.6 and 4.3 and 5.1 and 5

Compound: O=C(O)CNC(=O)c1ncc(-c2cccc(Cl)c2)cc1O [AKB-6548-A, reference compound]
- RETIC, Average [3]: 4.75
- RETIC, individual mice [3]: 6.1 and 4 (2×) and 4.2 (2×) and 4.9 and 5.3 (2×)

Compound: Cc1nc(C(=O)NCC(=O)O)c(O)c2ccc(Oc3ccccc3)nc12 [Compound 1, 2-(5-hydroxy-8-methyl-2-phenoxy-1,7-naphthyridine-6-formamido) acetic acid]
- RETIC, Average [1]: 4.73
- RETIC, individual mice [1]: 4.4 and 5.2 and 4.8 and 5 and 5.3 and 4.1 (2×) and 4.9
